Assay type in all cases: ADME, organism-based
A short description of data set [1]: Pharmacokinetic parameters for Indomethacin evaluated after oral administration of Indomethacin capsules. As to conditions: human, in vivo, dosed compound id 57, dosed compound name INDOMETHACIN, tissue Plasma.
Data set [2] in a line: (§1) Pharmacokinetic parameters for Indomethacin evaluated after single oral administration of 25 or 50 mg Indomethacin capsules. Also on record: dose 25 mg, dose 50 mg, route oral. As to conditions: human, in vivo, dosed compound id 57, dosed compound name INDOMETHACIN, regimen Single dose, tissue Plasma.
Data set [3] deals with Homo sapiens. Described as §1. Also on record: dose 25 mg, dose 50 mg, route oral. The following applies: in vivo, po, dosed compound id 57, dosed compound name INDOMETHACIN, regimen Single dose, tissue Plasma.

With `COc1ccc2c(c1)c(CC(=O)O)c(C)n2C(=O)c1ccc(Cl)cc1` [INDOMETHACIN], in data set [1], the bioavailability (commonly the share of a dose that reaches the circulation, judged against a reference dose that is usually intravenous) worked out at 100% and the half-life – broadly, how long it takes for the measured level to halve – is 4.5 h. The fraction unbound in data set [1] (read-out: Protein binding) was found to be 0.01. Further, in data set [2] (po), the Cmax (in general, the maximum level reached in the sampled fluid or tissue) stood at 1000 ng/mL. Besides, the time of peak concentration (Tmax) (commonly the time from dosing to the highest level) in data set [2] (dose 25 mg, route oral) turned out to be 2 h. The compound further showed a Cmax in data set [3] of 2000 ng/mL.

The values are drawn from ChEMBL document CHEMBL3832069, “DailyMed|setid=b463cd5f-299a-45f8-a1b3-c9e7fe271955 | INDOMETHACIN- indomethacin capsule|PD-Rx Pharmaceuticals, Inc”.
